This is an account of results in patent publication EP1046400B1, “Use of an Equine herpes virus type-4 thymidine kinase and a nucleoside analog selected from ganciclovir and acyclovir for the killing of human proliferative cells” (Université Pierre et Marie Curie (Paris VI), priority 1999, dated 2000).

One data set concerns NIH-3T3. The experiment in a line: Cytotoxicity assay (inhibition of [methyl-3H]thymidine incorporation), parental cells. Format: cell-based, murine. Conditions: Mus musculus, parental NIH-3T3. As for the experimental part:
(§1) Cells were seeded at 2.5x10^3 per wells in 24-wells plates. 24 h later they were grown in drug-containing medium for 7 days. Drug concentrations ranging from 0.001 nM to 100 µM were tested in triplicate. The medium was changed with fresh DMEM every 2 days. On day 6, 1.5 µCi of [methyl-^3H]thymidine (Amersham, UK) was added per well. After washes with phosphate-buffered saline (PBS pH 7.3), incorporated radioactivity was determined with a Micro-Beta Plus counter (EG&G Instruments and Wallac, Turku, Finland).
(§2) Drug toxicity was assessed by measuring inhibition of cell proliferation. Cells were grown in drug-containing medium for 7 days. [methyl-^3H]-thymidine was added at day 6 and incorporated radioactivity was measured.

In data set [1] the test system is EBV-TK expressing tk(-) 3T3 cells (bulk). The experiment in a line: Cytotoxicity assay, bulk transfected tk(-) 3T3 cells. The class given is cell-based, murine. The settings on record: for IC50: Mus musculus, NIH3T3, 168 h; for Selectivity Index: IC50 ratio of parental to EBV-TK transfected cells (bulk). As for the experimental part:
(§3) Cells were transfected by the various plasmids using a calcium phosphate precipitation kit (GibcoBRL). After 48 h of phenotypic expression, cells were grown in selective medium with zeocin (Cayla, Toulouse, France): 25 µg/ml (3T3 cells), 50 µg/ml (143 B cells) or 100 µg/ml (PANC-O2 and HCT 116 cells).
as §1, §2

Data set [2] concerns HSV1-TK expressing tk(-) 3T3 cells (bulk). The data set is described as above. The class given is cell-based, murine. The settings on record: for IC50: Mus musculus, NIH3T3, 168 h; for Selectivity Index: IC50 ratio of parental to HSV1-TK transfected cells (bulk). As for the experimental part:
as §3, §1, §2

Data set [3] relates to murine tk(-) 3T3 HSV1-TK expressing clones. The experiment in a line: Cytotoxicity assay, TK expressing clones. The settings on record: for IC50: Mus musculus, Table 2, HSV1-TK clones, mean of 3 experiments; for Selectivity Index: IC50 ratio of parental to HSV1-TK clones. The class given is cell-based. As for the experimental part: as §1
(§4) Drug sensitivity of TK expressing clones were tested as described in Table 1.

Data set [4] has as its system EHV4-TK expressing tk(-) 3T3 cells (bulk). Put plainly: Cytotoxicity assay, bulk transfected tk(-) 3T3 cells. The class given is cell-based, murine. The settings on record: for Selectivity Index: IC50 ratio of parental to EHV4-TK transfected cells (bulk); for IC50: Mus musculus, NIH3T3, 168 h. As for the experimental part:
(§5) Cells were transfected by the various plasmids using a calcium phosphate precipitation kit (GibcoBRL).
as §1, §2

Data set [5] concerns VZV-TK expressing tk(-) 3T3 cells (bulk). The data set is described as above. The class given is cell-based, murine. Conditions: for Selectivity Index: IC50 ratio of parental to VZV-TK transfected cells (bulk); for IC50: Mus musculus, NIH3T3, 168 h. As for the experimental part:
as §5, §1, §2

The test system of data set [6] is murine tk(-) 3T3 EHV4-TK expressing clones. Put plainly: Cytotoxicity assay, TK expressing clones. Format: cell-based. The settings on record: for Selectivity Index: IC50 ratio of parental to EHV4-TK clones; for IC50: Mus musculus. As for the experimental part: as §1, §4
Data set [7] concerns EHV4-TK expressing PANC-O2 cell bulk. Put plainly: Cytotoxicity assay, pancreatic tumor cell bulk. Format: cell-based, murine. As for the experimental part: as §1
Data set [8] deals with HSV1-TK expressing PANC-O2 cell bulk. Put plainly: Cytotoxicity assay, pancreatic tumor cell bulk. The class given is cell-based, murine. The settings on record: Mus musculus, means of two independent experiments. As for the experimental part: as §1
Data set [9] deals with human tk(-) 143B cells transfected with HSV1- or EHV4-TK. Put plainly: Cytotoxic activity on human cell bulks, EHV4-TK compared with HSV1-TK (Figure 3). Conditions: human tk(-) 143B cell bulks. Format: cell-based. As for the experimental part: Toxicity is presented as mean of IC50 values ± SD. The means, determined on 3 independent experiments, are indicated on the top of each histogram.
as §1
Human tk(-) osteosarcoma 143B cell bulks expressing HSV1- or EHV4-TK were thus generated. We first analyzed the herpesvirus-TK protein expression levels for each cell bulks by […] using polyclonal antibodies against Sh protein (Figure 2-B). There was no detectable band corresponding to fused protein in tk(-) 143B cell extracts.

Another data set has as its system HCT116 cells. The experiment in a line: Cytotoxicity assay, colonic carcinoma cells, parental. The class given is cell-based. The settings on record: Homo sapiens, HCT-116, mean. As for the experimental part:
as §1

Data set [10] relates to EHV4-TK expressing HCT116 cells. The experiment in a line: Cytotoxicity assay, colonic carcinoma cells. Format: cell-based, human. As for the experimental part: as §1
Data set [11] has as its system HSV1-TK expressing HCT116 cells. The experiment in a line: Cytotoxicity assay, colonic carcinoma cells. Format: cell-based, human. As for the experimental part:
as §1

For data set [12], the system named is tk(-) 3T3 cells expressing EHV4-TK/E-GFP fusion protein. Put plainly: GCV toxicity, viability assay (Figure 5-B). Format: cell-based, murine. Conditions: Mus musculus, NIH3T3. As for the experimental part: (§6) (A) E-GFP expression in tk(-) 3T3 transfected and non-transfected cells. EHV4-TK gene fused with E-GFP gene (Figure 1-B) was transfected in tk(-) 3T3 cells, and E-GFP positive cells were detected by FACS analysis. Expression of E-GFP was determined a week after transfection (1) and after 2 months of culture in HAT medium (2). (B) GCV toxicity in transfected and non-transfected cells. Results were expressed as % of viable cells compared to cells grown without GCV.
(§7) Parental and viral-TK expressing cells were plated at 5x10^3 per wells in 6-wells dishes. After 24 h, drugs was added to the medium at various concentrations ranging from 0.01 to 100 µM. Medium containing drugs was changed every 2 days. After 7 days of culture, cell viability was assayed by counting viable cells by trypan blue exclusion after 7 days of culture with GCV.
(§8) To facilitate the transgene detection in transfected cells or tissues, the E-GFP gene was fused in frame at the 3' end of the EHV4-TK gene and cloned into an expression vector (Figure 1-B). This construction was then transfected into tk(-) 3T3 cells, followed by FACS analysis of E-GFP positive cells. A cell bulk containing 95% of E-GFP expressing cells was obtained. […] Expression of the EHV4-TK/E-GFP fusion protein efficiently sensitized these cells to GCV for which the IC50 was 0.6 µM, compared to 30 µM for tk(-) 3T3 cells (Figure 5-B).

The next data set has as its system tk(-) 3T3 cells. Put plainly: GCV toxicity, viability assay (Figure 5-B), non-transfected cells. The settings on record: Mus musculus, NIH3T3; non-transfected tk(-) 3T3; % viable cells. The class given is cell-based, murine. As for the experimental part: as §6, §7, §8
For data set [13] the following is noted: 10 mg/kg twice a day, humans (refs 34, 35); cited from earlier work.
[14] abbreviates: NIH3T3, 168 h, Table 1, 7 days drug, mean of 2 experiments.
[15] abbreviates: NIH3T3, Table 2, mean of 3 experiments.

Consider `Nc1nc2c(ncn2COCCO)c(=O)[nH]1` [ACV, 9-(2-hydroxyethoxymethyl)guanine], for which the half-inhibitory concentration (IC50) in the data set on NIH-3T3 (setting [14]) worked out at 165000 nM; in the data set with NIH-3T3 (setting [15]), 53300 nM; in data set [1] it was 43300 nM; in [2], 8700 nM; in data set [3] it was 15000 nM.
Take `Nc1nc2c(ncn2COC(CO)CO)c(=O)[nH]1` [GCV, 9-(1,3-dihydroxy-2-propoxymethyl)guanine]: the half-inhibitory concentration (IC50) with NIH-3T3 (setting [14]) was 70000 nM; with NIH-3T3 (setting [15]) it was 36700 nM; in data set [1], 6000 nM; in [2], 200 nM; in [4], 100 nM; in data set [5] it was 8000 nM. Besides, the half-inhibitory concentration (IC50) in data set [6] turned out to be 60 nM; in data set [3] it was 160 nM; in [7] (Mus musculus) it was 550 ± 70 nM; in data set [8], 1700 ± 500 nM; with HCT116 cells it was 53400 ± 15000 nM; in data set [10] (Homo sapiens, HCT-116, EHV4-TK HCT116, means ± SD for 3 independent experiments), 110 ± 20 nM. Further, the IC50 in data set [11] (Homo sapiens, HCT-116, HSV1-TK HCT116, means ± SD for 3 independent experiments) turned out to be 320 ± 80 nM; in data set [12] it was 600 nM; with tk(-) 3T3 cells it was 30000 nM. For the same compound, the “Selectivity Index” value is 12 in [1]; 350 in data set [2]; 700 in [4]; 9 in [5]; 612 in [6]; 230 in data set [3]. For the same compound, the “IC50 fold lower for EHV4-TK than for HSV1-TK expressing cell bulk” value in data set [7] (PANC-O2) amounted to 3 fold. The “toxicity / sensitivity in EHV4-TK compared with HSV1-TK expressing cells” value in [9] is “approximately twelve fold more sensitive”. In addition, the “fold more sensitive than HCT116 cells” value in data set [10] (EHV4-TK expressing vs parental HCT116) was 485 fold; in [11] (HSV1-TK expressing vs parental HCT116), 170 fold. The “IC50 fold lower for EHV4-TK than for HSV1-TK expressing cells” value in [10] (HCT116) is recorded as 3 fold. Moreover, the “cerebral spinal fluid (CSF) concentrations, fold lower than plasmatic” value in [13] is “approximately 3 fold”.
Turning to `O=c1[nH]c(=O)n([C@H]2C[C@H](O)[C@@H](CO)O2)cc1/C=C/Br` [BVDU, (E)-5-(2-bromovinyl)-2'-deoxyuridine], the IC50 with NIH-3T3 (setting [14]) came out at 55000 nM; in the data set on NIH-3T3 (setting [15]) it was 43300 nM; in data set [1], 40 nM; in [2] it was 15 nM; in data set [4] it was 20 nM; in [5], 16 nM. The IC50 was determined as 35 nM in data set [6] and 13 nM in [3]. Further, the “Selectivity Index” value worked out at 1375 in [1]; 5500 in data set [2]; 2750 in data set [4]; 2750 in data set [5]; 1237 in [6]; 3331 in data set [3]. The “toxicity / sensitivity in EHV4-TK compared with HSV1-TK expressing cells” value in data set [9] is “greater in HSV1-TK than in EHV4-TK expressing cells”.
